Reference: patent US20260356834A1, “ANTICONVULSIVE COMPOUNDS AND USES THEREOF” (Jazz Pharmaceuticals Research UK Limite, priority 2023, published 2026)
“And” between values parts separate entries of the source, which are not always exact repeats. Equal entries are not always repeated. Where two headings read alike, the source gives them in different places. Marks after values point to notes of the source that are not given here.

What was measured:
[1] = tested on: C57BL/6J mice; settings: cited from earlier work
[2] = tested on: C57BL/6J mice; settings: cited from earlier work; remark: listed apart in the source
[3] = tested on: DBA/2 mice; settings: De Sarro et al., 2017; cited from earlier work
[4] = tested on: C57BL/6J mice; test: mouse maximal electroshock seizure threshold model (MEST); type: in vivo; settings: for CC50 +/− SEM: HPMC vehicle
Protocol: Vehicle=1:2:17 ethanol:Solutol® (Kolliphor® HS 15):saline: 1 mL of ethanol and 2 mL of solutol were warmed to 60 °C and 17 mL of 0.9% saline was added slowly. […]
Vehicle=0.5% HPMC and 0.1% Tween 80:0.5% HPMC and 0.1% Tween 80 in water.

[5] = tested on: RjOrl: Swiss mice; test: mouse 6 Hz (44 mA) model of partial seizures; type: in vivo; settings: for Mean Forelimb Clonus +/− SEM: score 0-2; for Change from vehicle (forelimb clonus): vs vehicle (HPMC)
Description: The 6 Hz (44 mA) model of partial seizures, which detects anticonvulsant activity, follows that described by Brown et al. 1953.
[…] A decrease in forelimb clonus score is indicative of protection from seizure and an anticonvulsive effect.
When conducted at a 44 mA stimulus intensity in mice, the 6 Hz test can differentiate compounds with potential for the treatment of focal-onset seizures that are often resistant to current anti-epileptic drugs.
Male RjOrl: Swiss mice (Janvier Labs, 53940 Le Genest-Saint-Isle, France), 5 weeks old, weighing 27-38 g at the beginning of the experiment. Animals were acclimatized to the Test Facility for at least 5 days after delivery and randomly housed in groups of 5 to 8 in macrolon cages on wood litter with free access to food and water.
The animal house was maintained under artificial lighting (12 hours) between 7:00 and 19:00 in a controlled ambient temperature of 22±2 °C and relative humidity between 30-70%.
Before transcorneal stimulation, a drop of tetracaine solution (1%) was applied on each eye of the mouse for local anesthesia. Between 1-10 minutes later and at the designated pre-treatment (see below), the mice were administered a rectangular current (44 mA, rectangular pulse: 0.2 ms pulse width, 3 s duration, (6 Hz) via corneal electrodes connected to a constant current shock generator (Ugo Basile: type 7801).
The results for the number of seizures as reflected by forelimb clonus were recorded immediately after current administration. Forelimb clonus was scored as absent (0=no forelimb clonus), mild (1=clonus with one forelimb) and strong (2=clonus with both forelimbs). The experimenters were blinded to the treatment. […]
The administration volume was 10 mL/kg.
Due to the number of animals tested, the experiment was divided in 2 sub-experiments on 2 consecutive days with equivalent numbers of mice per group and per sub-experiment.
Data were discrete values so considered to be non-normally distributed based on validation data, therefore non-parametric tests were utilized. Quantitative data (scores) with the test substance were analyzed by comparing test compound-treated groups with the 1:2:17 vehicle control using Kruskal-Wallis test with Dunn's multiple comparisons test when the Kruskal-Wallis test was significant. Quantitative data with the reference substance were analyzed using Mann-Whitney U test as compared to saline vehicle.

[6] = tested on: RjOrl: Swiss mice; settings: 44 mA; Klein et al., 2017; cited from earlier work
[7] = tested on: CB1; settings: cited from earlier work
[8] = tested on: CB2 receptors; settings: cited from earlier work
[9] = in vivo; cited from earlier work

Question: Which seizure threshold ([1]; known convulsive agent) does the source give for picrotoxin here?
Answer: The seizure threshold was “a reduction in seizure threshold”.

Question: What about the seizure threshold ([2]; known convulsive agent) of the same compound?
Answer: The seizure threshold was “a reduction in seizure threshold”.

Question: Which “protection from clonic convulsions, tonic convulsions and respiratory arrest” value [3] does the source give for NC(=O)N1c2ccccc2C=Cc2ccccc21 [carbamazepine] here?
Answer: The value was “protect DBA/2 mice from clonic convulsions, tonic convulsions and respiratory arrest”.

Question: What does the source list for CN1C(=O)CN=C(c2ccccc2)c2cc(Cl)ccc21 [Diazepam, diazepam, reference compound]?
Answer: Change from vehicle (CC50) ([4]; 2.5 mg/kg i.p., 30 min, vs 1:1:18 ethanol:Kolliphor EL:saline vehicle): 406%^###; Change from vehicle (CC50) ([4]; 2.5 mg/kg i.p., 30 min, vs 1:2:17 ethanol:Solutol:saline vehicle): 439%^###; Change from vehicle (CC50) ([4]; 2.5 mg/kg i.p., 30 min, vs HPMC vehicle): 652%*** and 526%***; anticonvulsive properties in the MEST test ([1]; mouse, in vivo): exhibit anticonvulsive properties; anticonvulsive properties in the MEST test ([2]; mouse, in vivo): exhibit anticonvulsive properties

Question: With CCCc1cc(O)c(-c2c(C)c(F)cn3ccnc23)c(O)c1 [Compound 11, 2-(6-Fluoro-7-methylimidazo[1,2-a]pyridin-8-yl)-5-propylbenzene-1,3-diol] as the compound, how does the “CC50 +/− SEM” value ([4]; 5 mg/kg p.o., 15 min) read?
Answer: Its value is 25.8 ± 1.9 mA.

Question: What about the “Change from vehicle (CC50)” value ([4]; 5 mg/kg p.o., 15 min, vs HPMC vehicle) of the same compound?
Answer: The value was −3%.

Question: And the “CC50 +/− SEM” value ([4]; 25 mg/kg p.o., 15 min)?
Answer: Its value is 37.5 ± 2.2 mA.

Question: And the “Change from vehicle (CC50)” value ([4]; 25 mg/kg p.o., 15 min, vs HPMC vehicle)?
Answer: Its value is 42%***.

Question: What about the “CC50 +/− SEM” value ([4]; 50 mg/kg p.o., 30 min) of the same compound?
Answer: Its value is 100.8 ± 3.9 mA.

Question: And the “Change from vehicle (CC50)” value ([4]; 50 mg/kg p.o., 30 min, vs HPMC vehicle)?
Answer: Its value is 281%***.

Question: And the “CC50 +/− SEM” value ([4]; 100 mg/kg p.o., 30 min)?
Answer: Its value is 250.0 ± 3.7 mA.

Question: What about the “Change from vehicle (CC50)” value ([4]; 100 mg/kg p.o., 30 min, vs HPMC vehicle) of the same compound?
Answer: Its value is 843%***.

Question: And the “Mean Forelimb Clonus +/− SEM” value ([5]; 25 mg/kg p.o., 15 min)?
Answer: The value was 0.85 ± 0.13.

Question: And the “Change from vehicle (forelimb clonus)” value ([5]; 25 mg/kg p.o., 15 min)?
Answer: Its value is −15%.

Question: And the “Mean Forelimb Clonus +/− SEM” value ([5]; 50 mg/kg p.o., 30 min)?
Answer: Its value is 0.55 ± 0.11.

Question: And the “Change from vehicle (forelimb clonus)” value ([5]; 50 mg/kg p.o., 30 min)?
Answer: Its value is −45%.

Question: What about the “Mean Forelimb Clonus +/− SEM” value ([5]; 100 mg/kg p.o., 30 min) of the same compound?
Answer: The value was 0.80 ± 0.14.

Question: And the “Change from vehicle (forelimb clonus)” value ([5]; 100 mg/kg p.o., 30 min)?
Answer: The value was −20%.

Question: What about the “Mean Forelimb Clonus +/− SEM” value ([5]; 200 mg/kg p.o., 60 min) of the same compound?
Answer: The value was 0.75 ± 0.12.

Question: What about the “Change from vehicle (forelimb clonus)” value ([5]; 200 mg/kg p.o., 60 min) of the same compound?
Answer: The value was −25%.

Question: With C=C(C)[C@@H]1CCC(C)=C[C@H]1c1c(O)cc(CCCCC)cc1O [CBD, cannabidiol] as the compound, how does the “anticonvulsive effects in the 6 Hz test” value [6] read?
Answer: Its value is “exhibit anticonvulsive effects”.

Question: What about the “binding to CB1” value [7] of the same compound?
Answer: The value was “does not bind”.

Question: What about the “binding to CB2 receptors” value [8] of the same compound?
Answer: Its value is “does not bind”.

Question: What about the “psychotropic effects associated with cannabis” value [9] of the same compound?
Answer: Its value is “does not induce the psychotropic effects”.
